OC[C@H]1O[C@H](O[C@H]2O[C@H](CO)[C@@H](O)[C@H](O)[C@H]2O)[C@H](O)[C@@H](O)[C@@H]1O
solubility (mole fraction)
Details | 288.15 K | 293.15 K | 298.15 K | 303.15 K | 308.15 K | 313.15 K | 318.15 K
in ethanol | 0.000652 | 0.000701 | 0.000778 | 0.000852 | 0.000905 | 0.000989 | 0.00108
in water | 0.0344 | 0.0381 | 0.0437 | 0.0545 | 0.0636 | 0.0683 | 0.114

Reference: BigSolDB 2.1
